Reference: US9808466B2, “Macrocyclic compounds as protein kinase inhibitors” (Fundación Centro Nacional de Investigaciones Oncologicas …, priority 2011, dated 2017)
Where two headings read alike, the source gives them in different places.

Columns and labels:
[1] = target: T1, PIM-1 (Homo sapiens, UniProt P11309); test: PIM-1 biochemical assay (ADP Hunter); conditions: PIM1
T1 construct: histidine tag (C); made in house
Summary of the method: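 Recombinant His-tagged human PIM-1 (50 pg/μl) with PIMtide peptide (60 μM) and 100 μM ATP in HEPES pH 7.4 buffer with MgCl2, 60 min at 30° C, DMSO below 2%. ADP formed detected by coupled ADP Hunter reaction as resorufin fluorescence (Ex 544/Em 580 nm).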

[2] = Pharmacokinetic in BALB-c female mice, i.v. and oral; type: in vivo; conditions: for AUC(0-inf) / half-life / clearance / MRT / Vd / bioavailability / Cmax: mouse; for half-life: read-out: T½ last (plasmatic half life) (converted); for clearance: read-out: Cl (plasmatic clearance) (converted); for MRT: read-out: MRT (Mean residence time); for Vd: read-out: Vd (volume of distribution); for bioavailability: read-out: F % (bioavailability); for Cmax: read-out: C max (maximum plasma concentration after oral administration)
Description: Experiments were done using BALB-c female mice, 10 weeks old. Compounds were dissolved in selected vehicles at a concentration calculated in order to administer the dose selected in 0.1 mL. Animals were administered by i.v and oral route (by gavage), and sacrificed at different time points (n=3 at each time point). Time points were 0.08, 0.25, 0.5, 1, 4 and 8 h for the i.v branch, and 0.08, 0.16, 0.25, 0.5, 1, 4, 8 and 24 h for oral branch. Blood was collected and processed for plasma which was analyzed and quantified by means of tandem mass spectrometry coupled with liquid chromatography. Pharmacokinetic parameters were estimated by fitting the experimental data to a compartmental model using Winnonlin software for pharmacokinetic analysis.

[3] = target: T2, PI3K (p110α/p85α) (Homo sapiens, UniProt P42336); test: PI3K activity assay (ADP Hunter Plus); type: biochemical
T2 construct: purchased Carna Biosciences 07CBS-0402A
Summary of the method: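 ADP accumulation measured by coupled fluorescence (ex 544/em 580 nm) after a 1 h kinase reaction at 25 °C, then 30 min at 37 °C with detection reagents. Activity normalised to no-compound control (100%) and IC50 from sigmoid dose-response fit.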

[4] = target: T3, mTOR (Homo sapiens, UniProt P42345); test: mTOR assay (LanthaScreen kinase activity assay); type: biochemical
T3 construct: purchased Invitrogen PV4754

[5] = read-out: PIM-1 activity, IC50 (semi-quantitative class)
[6] = iv, I.V, dose 5.00 mg/Kg, plasma
[7] = plasma, iv, I.V, dose 5.00 mg/Kg
[8] = plasma, po, P.O dose 10.00 mg/Kg vs I.V 5.00 mg/Kg
[9] = po, P.O, dose 10.00 mg/Kg, plasma
[10] = read-out: PI3K alpha activity, IC50 (semi-quantitative class)
[11] = read-out: PI3K alpha actual IC50 (in parentheses)
[12] = read-out: mTOR activity, IC50 (semi-quantitative class)
[13] = read-out: PIM-1 actual IC50 (in parentheses)
[14] = read-out: mTOR actual IC50 (in parentheses)
[15] = iv, I.V, dose 1.00 mg/Kg, plasma
[16] = plasma, iv, I.V, dose 1.00 mg/Kg
[17] = po, P.O, dose 3.00 mg/Kg, plasma

T3 sequence (P42345 1360-2549 limits assumed): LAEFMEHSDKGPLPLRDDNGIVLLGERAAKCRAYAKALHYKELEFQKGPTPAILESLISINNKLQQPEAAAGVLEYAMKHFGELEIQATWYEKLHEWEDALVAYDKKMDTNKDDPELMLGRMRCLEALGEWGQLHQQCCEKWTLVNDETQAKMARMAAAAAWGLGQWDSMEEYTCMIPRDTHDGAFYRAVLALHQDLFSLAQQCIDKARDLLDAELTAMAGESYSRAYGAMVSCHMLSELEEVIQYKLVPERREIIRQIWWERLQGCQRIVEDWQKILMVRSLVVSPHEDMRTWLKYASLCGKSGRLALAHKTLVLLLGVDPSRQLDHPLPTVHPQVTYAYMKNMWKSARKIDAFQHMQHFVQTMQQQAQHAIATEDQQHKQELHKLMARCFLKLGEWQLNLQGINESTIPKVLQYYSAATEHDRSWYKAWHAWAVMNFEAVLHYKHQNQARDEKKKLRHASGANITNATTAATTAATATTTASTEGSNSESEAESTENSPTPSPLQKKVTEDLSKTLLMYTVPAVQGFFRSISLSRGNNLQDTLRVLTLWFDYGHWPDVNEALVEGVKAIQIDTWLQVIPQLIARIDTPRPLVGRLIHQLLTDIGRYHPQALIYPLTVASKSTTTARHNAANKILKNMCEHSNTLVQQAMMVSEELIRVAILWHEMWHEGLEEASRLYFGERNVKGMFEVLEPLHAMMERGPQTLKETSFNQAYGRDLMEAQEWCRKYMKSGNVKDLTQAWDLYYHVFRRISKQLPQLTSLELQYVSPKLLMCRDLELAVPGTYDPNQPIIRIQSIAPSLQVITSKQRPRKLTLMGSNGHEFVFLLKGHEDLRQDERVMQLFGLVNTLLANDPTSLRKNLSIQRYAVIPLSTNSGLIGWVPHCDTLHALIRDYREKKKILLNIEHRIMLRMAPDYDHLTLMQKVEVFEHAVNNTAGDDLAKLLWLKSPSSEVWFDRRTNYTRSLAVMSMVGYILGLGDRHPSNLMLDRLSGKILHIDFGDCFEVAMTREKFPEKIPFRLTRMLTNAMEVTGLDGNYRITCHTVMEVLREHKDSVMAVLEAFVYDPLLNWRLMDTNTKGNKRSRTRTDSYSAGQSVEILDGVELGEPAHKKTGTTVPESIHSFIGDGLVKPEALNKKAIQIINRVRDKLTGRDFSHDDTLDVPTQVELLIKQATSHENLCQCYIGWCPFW
T1 sequence (P11309 whole entry): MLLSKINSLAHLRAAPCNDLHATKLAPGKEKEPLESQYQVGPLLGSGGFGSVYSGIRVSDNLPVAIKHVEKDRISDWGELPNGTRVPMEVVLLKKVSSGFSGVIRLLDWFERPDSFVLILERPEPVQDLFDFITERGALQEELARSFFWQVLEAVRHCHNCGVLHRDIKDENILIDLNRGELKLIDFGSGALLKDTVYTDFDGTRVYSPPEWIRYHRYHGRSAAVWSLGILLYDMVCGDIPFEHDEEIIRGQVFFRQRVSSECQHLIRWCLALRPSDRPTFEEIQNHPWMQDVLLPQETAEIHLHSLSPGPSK
T2 sequence (P42336 whole entry): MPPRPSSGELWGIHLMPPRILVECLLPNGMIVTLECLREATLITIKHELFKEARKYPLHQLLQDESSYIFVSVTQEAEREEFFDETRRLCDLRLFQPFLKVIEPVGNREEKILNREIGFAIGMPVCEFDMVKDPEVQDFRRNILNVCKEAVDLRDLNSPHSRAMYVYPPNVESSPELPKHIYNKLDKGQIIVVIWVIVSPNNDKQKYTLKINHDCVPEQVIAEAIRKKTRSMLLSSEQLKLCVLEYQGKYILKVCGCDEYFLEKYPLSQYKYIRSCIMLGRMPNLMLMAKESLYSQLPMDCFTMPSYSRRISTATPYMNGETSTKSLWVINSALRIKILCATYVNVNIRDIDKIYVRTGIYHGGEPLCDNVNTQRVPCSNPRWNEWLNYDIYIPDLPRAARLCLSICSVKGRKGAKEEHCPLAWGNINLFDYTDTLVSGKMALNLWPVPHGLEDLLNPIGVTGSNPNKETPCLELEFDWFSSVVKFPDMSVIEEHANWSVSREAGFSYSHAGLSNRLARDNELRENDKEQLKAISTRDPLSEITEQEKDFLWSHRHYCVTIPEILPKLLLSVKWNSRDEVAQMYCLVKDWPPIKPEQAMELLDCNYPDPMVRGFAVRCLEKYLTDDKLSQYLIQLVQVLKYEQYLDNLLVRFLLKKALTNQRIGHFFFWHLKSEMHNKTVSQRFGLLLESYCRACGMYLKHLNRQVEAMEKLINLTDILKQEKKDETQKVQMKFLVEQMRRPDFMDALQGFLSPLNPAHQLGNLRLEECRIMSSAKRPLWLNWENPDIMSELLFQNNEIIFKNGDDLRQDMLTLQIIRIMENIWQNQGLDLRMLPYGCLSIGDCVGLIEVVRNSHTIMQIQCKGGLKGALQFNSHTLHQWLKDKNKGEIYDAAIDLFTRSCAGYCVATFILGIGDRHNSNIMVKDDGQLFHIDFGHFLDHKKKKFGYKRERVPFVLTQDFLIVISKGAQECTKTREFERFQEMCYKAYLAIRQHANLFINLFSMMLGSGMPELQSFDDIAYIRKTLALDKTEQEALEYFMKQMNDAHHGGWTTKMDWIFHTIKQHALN
T2 sequence (P27986 whole entry partner): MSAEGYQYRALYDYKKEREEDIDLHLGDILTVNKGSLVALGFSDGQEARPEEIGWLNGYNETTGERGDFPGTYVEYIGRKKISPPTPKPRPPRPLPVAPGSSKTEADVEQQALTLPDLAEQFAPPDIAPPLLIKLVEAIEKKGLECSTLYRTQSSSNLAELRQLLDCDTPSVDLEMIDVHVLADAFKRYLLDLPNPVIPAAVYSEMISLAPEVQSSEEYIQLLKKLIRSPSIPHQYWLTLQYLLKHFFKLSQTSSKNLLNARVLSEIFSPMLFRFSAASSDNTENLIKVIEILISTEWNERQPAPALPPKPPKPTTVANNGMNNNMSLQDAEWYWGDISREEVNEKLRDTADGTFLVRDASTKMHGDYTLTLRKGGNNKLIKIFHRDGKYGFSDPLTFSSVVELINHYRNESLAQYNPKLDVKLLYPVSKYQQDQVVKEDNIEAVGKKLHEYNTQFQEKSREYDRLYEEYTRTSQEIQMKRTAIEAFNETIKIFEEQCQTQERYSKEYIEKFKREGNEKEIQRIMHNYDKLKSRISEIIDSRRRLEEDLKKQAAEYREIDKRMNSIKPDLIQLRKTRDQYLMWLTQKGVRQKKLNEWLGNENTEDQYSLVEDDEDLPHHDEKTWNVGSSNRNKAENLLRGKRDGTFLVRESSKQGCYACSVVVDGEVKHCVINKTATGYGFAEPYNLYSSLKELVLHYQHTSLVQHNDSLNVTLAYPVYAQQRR

Structure (SMILES)	IC50 [1, 5] [nM]	AUC(0-inf) [2, 6] [ng·h/mL]	half-life [2, 6] [min]	clearance [2, 7] [mL/min/kg]	MRT [2, 7] [h]	Vd [2, 7] [L/kg]	bioavailability [2, 8] [%]	AUC(0-inf) [2, 9] [ng·h/mL]	Cmax [2, 9] [ng/mL]	IC50 [3, 10] [nM]	IC50 [3, 11] [nM]	IC50 [4, 12] [nM]	IC50 [4, 14] [nM]	other results
COc1ncc2cc1NS(=O)(=O)c1cccc(c1)C(=O)NCc1cccc(c1)-c1ncnc3ccc-2cc13 [compound 22]	> 1000	66900	205	1.17	4.94	0.37	33.5	44800	15000	< 100	0.1	–	–	–
COc1ncc2cc1NS(=O)(=O)c1cccc(c1)C(=O)NCc1cccc(c1)-c1ccnc3ccc-2cc13 [compound 3]	> 1000	23700	84.6	6	1.27	0.46	101	48100	12400	< 100	1.6	100 to 1000	–	–
COc1ncc2cc1NS(=O)(=O)c1cccc(c1)C(=O)NCC1=CC=C(S1)c1ncnc3c1SC2=C3C [compound 68]	< 100	16600	189	0.667	10.9	0.49	34.5	57300	2930	< 100	2.5	< 100	90	IC50 [1, 13]: 28 nM
COc1ncc2cc1NS(=O)(=O)c1cccc(c1)C(=O)NCc1cccc(c1)-c1cnn3ccc-2nc13 [compound 16]	> 1000	23600	134	4.5	3.33	0.99	123	29200	4820	< 100	0.9	< 100	4	–
COc1ncc2cc1NS(=O)(=O)c1cccc(c1)C(=O)NCc1cncc(c1)-c1ccnc3ccc-2nc13 [compound 31]	> 1000	8930	23.4	11.5	0.81	0.56	34	6080	1640	< 100	2	< 100	23	–
COc1ncc2cc1NS(=O)(=O)c1cccc(c1)C(=O)NCCn1cc(cn1)-c1ncnc3ccc-2cc13 [compound 33]	> 1000	9160	175	10	1.87	1.12	48.1	8810	1270	< 100	1.3	< 100	4.8	–
COc1ncc2cc1NS(=O)(=O)c1cccc(c1)C(=O)NCc1csc(c1)-c1ncnc3c1SC2=C3 [compound 77]	< 100	–	–	–	–	–	–	–	–	100 to 1000	–	> 1000	–	IC50 [1, 13]: 17 nM
COc1ncc2cc1NS(=O)(=O)c1cc(c(F)cc1F)C(=O)NCc1cncc(c1)-c1ccnc3ccc-2cc13 [compound 10]	> 1000	–	–	–	0.53	0.28	39.9	7560	3390	< 100	0.03	< 100	22	Cl (plasmatic clearance) ([2]; I.V, dose 5.00 mg/Kg): 0.53 L/h/kg; AUC inf ([2]; I.V, dose 5.00 mg/Kg, plasma): 9467.60 ng·h/mL; T½ last (plasmatic half life) ([2]; I.V, dose 5.00 mg/Kg, plasma): 34.2 min
COc1ncc2cc1NS(=O)(=O)c1cccc(c1)C(=O)NCC1CCN(CC1)c1ncnc3cc-2sc13 [compound 38]	> 1000	–	–	–	–	–	–	–	–	> 1000	–	> 1000	–	–
COc1ncc2cc1NS(=O)(=O)c1cccc(c1)C(=O)NCc1cncc(c1)-c1cnc3ccc-2nn13 [compound 12]	> 1000	–	–	–	–	–	–	–	–	< 100	0.4	< 100	5	–
COc1ncc2cc1NS(=O)(=O)c1cccc(c1)C(=O)N1CCc3ccc(cc3C1)-c1ccnc3ccc-2cc13 [compound 39]	> 1000	–	–	–	–	–	–	–	–	< 100	0.05	< 100	0.3	AUC(0-inf) [2, 15]: 4460 ng·h/mL; half-life [2, 15]: 99.6 min; clearance [2, 16]: 4.17 mL/min/kg; MRT [2, 16]: 2.39 h; Vd [2, 16]: 0.59 L/kg; bioavailability ([2]; plasma, po, P.O dose 3.00 mg/Kg vs I.V 1.00 mg/Kg): 26.8%; AUC(0-inf) [2, 17]: 3580 ng·h/mL; Cmax [2, 17]: 962 ng/mL
COc1ncc2cc1NS(=O)(=O)c1cccc(c1)C(=O)NCCn1cc(cn1)-c1cnc3ccc-2cn13 [compound 34]	> 1000	–	–	–	–	–	–	–	–	< 100	7.6	< 100	66	–
